In assay [1] the target is T1, MTHFD1 recombinant human enzyme (Homo sapiens, UniProt P11586).
T1 sequence (P11586 2-291 limits assumed): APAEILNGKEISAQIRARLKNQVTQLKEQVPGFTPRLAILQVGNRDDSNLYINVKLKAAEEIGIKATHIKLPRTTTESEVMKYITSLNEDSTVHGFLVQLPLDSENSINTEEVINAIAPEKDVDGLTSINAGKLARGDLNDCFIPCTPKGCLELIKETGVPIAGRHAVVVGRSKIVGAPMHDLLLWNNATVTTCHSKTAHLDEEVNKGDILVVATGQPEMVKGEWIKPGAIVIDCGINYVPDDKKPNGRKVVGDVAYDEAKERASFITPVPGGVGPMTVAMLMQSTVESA
The assay can be described thus: MTHFD1 inhibition assay (NAD(P)H-Glo luminescence). The note with it: MTHFD1 IC50, recombinant human enzyme 200 nM, NADP, band.

The target in assay [2] is T2, MTHFD2 recombinant human enzyme (Homo sapiens, UniProt P13995).
T2 sequence (P13995 36-350): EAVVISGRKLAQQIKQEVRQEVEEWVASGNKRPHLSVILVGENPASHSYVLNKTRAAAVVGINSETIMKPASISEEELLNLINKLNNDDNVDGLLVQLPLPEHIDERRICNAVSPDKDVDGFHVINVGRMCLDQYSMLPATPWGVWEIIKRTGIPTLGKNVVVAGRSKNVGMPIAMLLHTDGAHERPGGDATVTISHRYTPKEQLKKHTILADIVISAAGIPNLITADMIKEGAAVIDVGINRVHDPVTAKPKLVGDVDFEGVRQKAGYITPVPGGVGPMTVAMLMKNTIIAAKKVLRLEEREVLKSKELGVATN
The assay can be described thus: MTHFD2 inhibition assay (NAD(P)H-Glo luminescence). As to conditions: for MTHFD1/MTHFD2 IC50 ratio: selectivity of MTHFD2 inhibition over MTHFD1, band.

What is called IC50 is the midpoint of a concentration-inhibition curve. Turning to `COC[C@H]1CN(c2cc(C)c3c4c(c(=O)oc3c2C)CN(C(=O)c2ccc(C(=O)NS(=O)(=O)N(C)C)c(OC3C[C@@H]5C[C@@H]5C3)c2)CC4)CCN1C` (mixture of isomers) [Example 108, 2-(bicyclo[3.1.0]hexan-3-yloxy)-N-(N,N-dimethylsulfamoyl)-4-(8-((R)-3-(methoxymethyl)-4-methylpiperazin-1-yl)-7,10-dimethyl-5-oxo-1,3,4,5-tetrahydro-2H-chromeno[3,4-c]pyridine-3-carbonyl)benzamide], the IC50 in assay [1] and in assay [2] was 10 to 100 nM in each case. For the same compound, the “MTHFD1/MTHFD2 IC50 ratio” value in assay [2] is recorded as “F (<3)”.

Take `COC[C@H]1CN(c2cc(C)c3c4c(c(=O)oc3c2C)CN(C(=O)c2ccc(C(=O)NS(=O)(=O)N3CCCC3)c(OC3C[C@@H]5C[C@@H]5C3)c2)CC4)CCN1C` (mixture of isomers) [Example 109, 2-(bicyclo[3.1.0]hexan-3-yloxy)-4-(8-((R)-3-(methoxymethyl)-4-methylpiperazin-1-yl)-7,10-dimethyl-5-oxo-1,3,4,5-tetrahydro-2H-chromeno[3,4-c]pyridine-3-carbonyl)-N-(pyrrolidin-1-ylsulfonyl)benzamide]: the concentration for half-maximal inhibition (IC50) in assay [1] and in assay [2] was 10 to 100 nM each time. For the same compound, the “MTHFD1/MTHFD2 IC50 ratio” value in assay [2] was “F (<3)”.

As to `COC[C@H]1CN(c2ccc3c4c(c(=O)oc3c2C)CN(C(=O)c2ccc(C(=O)NS(=O)(=O)N(C)C)c(OC3C[C@@H]5C[C@@H]5C3)c2)CC4)CCN1C` (mixture of isomers) [Example 113, 2-(bicyclo[3.1.0]hexan-3-yloxy)-N-(N,N-dimethylsulfamoyl)-4-(8-((R)-3-(methoxymethyl)-4-methylpiperazin-1-yl)-7-methyl-5-oxo-1,3,4,5-tetrahydro-2H-chromeno[3,4-c]pyridine-3-carbonyl)benzamide], the IC50 in assay [1] was 10 to 100 nM. In assay [2], the IC50 is 100 to 1000 nM and the “MTHFD1/MTHFD2 IC50 ratio” value is reported as “F (<3)”.

`COC[C@H]1CN(c2ccc3c4c(c(=O)oc3c2C)CN(C(=O)c2ccc(C(=O)NS(=O)(=O)N3CCCC3)c(OC3C[C@@H]5C[C@@H]5C3)c2)CC4)CCN1C` (mixture of isomers) [Example 114, 2-(bicyclo[3.1.0]hexan-3-yloxy)-4-(8-((R)-3-(methoxymethyl)-4-methylpiperazin-1-yl)-7-methyl-5-oxo-1,3,4,5-tetrahydro-2H-chromeno[3,4-c]pyridine-3-carbonyl)-N-(pyrrolidin-1-ylsulfonyl)benzamide]: the IC50 was 10 to 100 nM in assay [1] and 100 to 1000 nM in assay [2]. For the same compound, the “MTHFD1/MTHFD2 IC50 ratio” value in assay [2] is reported as “F (<3)”.

Consider `COC[C@H]1CN(c2ccc3c4c(c(=O)oc3c2C)CN(C(=O)c2ccc(C(=O)NS(=O)(=O)N(C)C)c(OC3CCCC3)c2F)CC4)CCN1C` [Example 5, (R)-2-(cyclopentyloxy)-N-(N,N-dimethylsulfamoyl)-3-fluoro-4-(8-(3-(methoxymethyl)-4-methylpiperazin-1-yl)-7-methyl-5-oxo-1,3,4,5-tetrahydro-2H-chromeno[3,4-c]pyridine-3-carbonyl)benzamide], for which the IC50 in assay [1] is 1 to 10 nM. For the same compound, in assay [2], the half-maximal inhibitory concentration (IC50) is 10 to 100 nM and the “MTHFD1/MTHFD2 IC50 ratio” value is given as “F (<3)”.

In the case of `COC[C@H]1CN(c2ccc3c4c(c(=O)oc3c2Cl)CN(C(=O)c2ccc(C(=O)NS(=O)(=O)N3CCCC3)c(OC3CCCC3)c2F)CC4)CCN1C` [Example 6, (R)-4-(7-chloro-8-(3-(methoxymethyl)-4-methylpiperazin-1-yl)-5-oxo-1,3,4,5-tetrahydro-2H-chromeno[3,4-c]pyridine-3-carbonyl)-2-(cyclopentyloxy)-3-fluoro-N-(pyrrolidin-1-ylsulfonyl)benzamide], in assay [1], the IC50 is 1 to 10 nM. For the same compound, in assay [2], the half-maximal inhibitory concentration (IC50) lay within 10 to 100 nM and the “MTHFD1/MTHFD2 IC50 ratio” value is “F (<3)”.

Consider `COC[C@H]1CN(c2ccc3c4c(c(=O)oc3c2C)CN(C(=O)c2ccc(C(=O)NS(=O)(=O)C3(C)CC3)c(OC3CCC3)c2)CC4)CCN1C` [Example 7, (R)-2-cyclobutoxy-4-(8-(3-(methoxymethyl)-4-methylpiperazin-1-yl)-7-methyl-5-oxo-1,3,4,5-tetrahydro-2H-chromeno[3,4-c]pyridine-3-carbonyl)-N-((1-methylcyclopropyl)sulfonyl)benzamide], for which the concentration for half-maximal inhibition (IC50) in assay [1] lay within 10 to 100 nM. In assay [2], the IC50 is 10 to 100 nM and the “MTHFD1/MTHFD2 IC50 ratio” value is “F (<3)”.

As for `COC[C@H]1CN(c2ccc3c4c(c(=O)oc3c2C)CN(C(=O)c2ccc(C(=O)NS(=O)(=O)C3(C)CC3)c(OC3CCCC3)c2)CC4)CCN1C` [Example 8, (R)-2-(cyclopentyloxy)-4-(8-(3-(methoxymethyl)-4-methylpiperazin-1-yl)-7-methyl-5-oxo-1,3,4,5-tetrahydro-2H-chromeno[3,4-c]pyridine-3-carbonyl)-N-((1-methylcyclopropyl)sulfonyl)benzamide], the IC50 in assay [1] was 10 to 100 nM. In addition, in assay [2], the half-maximal inhibitory concentration (IC50) fell in the range of 10 to 100 nM and the “MTHFD1/MTHFD2 IC50 ratio” value was “F (<3)”.

Take `COC[C@H]1CN(c2ccc3c4c(c(=O)oc3c2C)CN(C(=O)c2ccc(C(=O)NS(=O)(=O)C3(C)CC3)c(OC3CCCC3)c2F)CC4)CCN1C` [Example 9, (R)-2-(cyclopentyloxy)-3-fluoro-4-(8-(3-(methoxymethyl)-4-methylpiperazin-1-yl)-7-methyl-5-oxo-1,3,4,5-tetrahydro-2H-chromeno[3,4-c]pyridine-3-carbonyl)-N-((1-methylcyclopropyl)sulfonyl)benzamide]: the half-maximal inhibitory concentration (IC50) in assay [1] and in assay [2] was 10 to 100 nM throughout. Also, in assay [2], the “MTHFD1/MTHFD2 IC50 ratio” value was “F (<3)”.

As to `COC[C@H]1CN(c2ccc3c4c(c(=O)oc3c2Cl)CN(C(=O)c2ccc(C(=O)NS(=O)(=O)C3(C)CC3)c(OC3CCC3)c2)CC4)CCN1C` [Example 10, (R)-4-(7-chloro-8-(3-(methoxymethyl)-4-methylpiperazin-1-yl)-5-oxo-1,3,4,5-tetrahydro-2H-chromeno[3,4-c]pyridine-3-carbonyl)-2-cyclobutoxy-N-((1-methylcyclopropyl)sulfonyl)benzamide], in assay [1], the IC50 was 10 to 100 nM. Moreover, in assay [2], the IC50 lay within 10 to 100 nM and the “MTHFD1/MTHFD2 IC50 ratio” value is on record as “F (<3)”.

Take `COC[C@H]1CN(c2cc(C)c3c4c(c(=O)oc3c2C)CN(C(=O)c2ccc(C(=O)NS(=O)(=O)N(C)C)c(O[C@@H]3C[C@@H]5C[C@@H]5C3)c2F)CC4)CCN1C` [Example 11, 2-(((1R,3r,5S)-bicyclo[3.1.0]hexan-3-yl)oxy)-N-(N,N-dimethylsulfamoyl)-3-fluoro-4-(8-((R)-3-(methoxymethyl)-4-methylpiperazin-1-yl)-7,10-dimethyl-5-oxo-1,3,4,5-tetrahydro-2H-chromeno[3,4-c]pyridine-3-carbonyl)benzamide]: the concentration for half-maximal inhibition (IC50) in assay [1] and in assay [2] was 1 to 10 nM throughout. Also, the “MTHFD1/MTHFD2 IC50 ratio” value in assay [2] was “F (<3)”.

As to `COC[C@H]1CN(c2ccc3c4c(c(=O)oc3c2C)CN(C(=O)c2ccc(C(=O)NS(=O)(=O)N(C)C)c(O[C@@H]3C[C@@H]5C[C@@H]5C3)c2F)CC4)CCN1C` [Example 13, 2-(((1R,3r,5S)-bicyclo[3.1.0]hexan-3-yl)oxy)-N-(N,N-dimethylsulfamoyl)-3-fluoro-4-(8-((R)-3-(methoxymethyl)-4-methylpiperazin-1-yl)-7-methyl-5-oxo-1,3,4,5-tetrahydro-2H-chromeno[3,4-c]pyridine-3-carbonyl)benzamide], the 50% inhibitory concentration (IC50) in assay [1] was 1 to 10 nM. Besides, in assay [2], the half-maximal inhibitory concentration (IC50) is 1 to 10 nM and the “MTHFD1/MTHFD2 IC50 ratio” value is recorded as “F (<3)”.
